Values of other authors, collected in patent publication US5763196A, “Assays using cross-linked polypeptide fragments of β-galactosidase” (priority 1996, dated 1998).

System: interleukin-1-β converting enzyme (ICE protease)

Row | SMILES | minimal and best peptide substrate found to date (Thornberry, Nature 356:768-74 (1992)) | inhibition of ICE protease (in words) (Nature 375:78-81 (1995))
1 | CNC(=O)[C@H](CC(=O)O)NC(=O)[C@H](C)NC(=O)[C@@H](NC(=O)[C@H](Cc1ccc(O)cc1)NC(C)=O)C(C)C [Ac-Tyr-Val-Ala-Asp-NH-CH3] | minimal and best peptide substrate | –
2 | CC(=O)N[C@@H](Cc1ccc(O)cc1)C(=O)N[C@H](C(=O)N[C@@H](C)C(=O)N[C@@H](CC(=O)O)C(=O)CCl)C(C)C [Ac-Tyr-Val-Ala-Asp-*] | – | potent inhibitor
